Laboratory results as given in PubChem BioAssay AID1918936 (Molecular Pharmacology Branch, DTP, NCI, 2023).

System: 349418-098-R-PDC complex spheroid viability
Assay: Anticancer human tumor 349418-098-R-PDC patient-derived lung adenocarcinoma cell line growth inhibition
Conditions: for IC50: curve of first compound; for viability, T/C: stronger effect = lower value
How it was run: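 Multicellular complex spheroids of tumor cells with human endothelial cells (HUVEC) and mesenchymal stem cells; the LSD1 inhibitor iadademstat was combined with standard-of-care or investigational agents. Top concentration at or near clinical Cmax, half-log dilutions; final DMSO ≤0.25%.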

[1] = second compound 0.1 µM, first compound 0.0316 µM
[2] = second compound 0.1 µM, first compound 0.1 µM
[3] = second compound 0.1 µM, first compound 0.316 µM
[4] = second compound 0.1 µM, first compound 1 µM
[5] = second compound 0.1 µM, first compound 3.16 µM
[6] = second compound 0.1 µM, first compound 10 µM
[7] = second compound 0.316 µM, first compound 0.0316 µM
[8] = second compound 0.316 µM, first compound 0.1 µM
[9] = second compound 0.316 µM, first compound 0.316 µM
[10] = second compound 0.316 µM, first compound 1 µM
[11] = second compound 0.316 µM, first compound 3.16 µM
[12] = second compound 0.316 µM, first compound 10 µM
[13] = second compound 1 µM, first compound 0.0316 µM
[14] = second compound 1 µM, first compound 0.1 µM
[15] = second compound 1 µM, first compound 0.316 µM
[16] = second compound 1 µM, first compound 1 µM
[17] = second compound 1 µM, first compound 3.16 µM
[18] = second compound 1 µM, first compound 10 µM
[19] = second compound 3.16 µM, first compound 0.0316 µM
[20] = second compound 3.16 µM, first compound 0.1 µM
[21] = second compound 3.16 µM, first compound 0.316 µM
[22] = second compound 3.16 µM, first compound 1 µM
[23] = second compound 3.16 µM, first compound 3.16 µM
[24] = second compound 3.16 µM, first compound 10 µM
[25] = second compound 10 µM, first compound 0.0316 µM
[26] = second compound 10 µM, first compound 0.1 µM
[27] = second compound 10 µM, first compound 0.316 µM
[28] = second compound 10 µM, first compound 1 µM
[29] = second compound 10 µM, first compound 3.16 µM
[30] = second compound 10 µM, first compound 10 µM
[31] = second compound 0.1 µM, first compound 0.00316 µM
[32] = second compound 0.1 µM, first compound 0.01 µM
[33] = second compound 0.316 µM, first compound 0.00316 µM
[34] = second compound 0.316 µM, first compound 0.01 µM
[35] = second compound 1 µM, first compound 0.00316 µM
[36] = second compound 1 µM, first compound 0.01 µM
[37] = second compound 3.16 µM, first compound 0.00316 µM
[38] = second compound 3.16 µM, first compound 0.01 µM
[39] = second compound 10 µM, first compound 0.00316 µM
[40] = second compound 10 µM, first compound 0.01 µM
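Also: spheroids exposed to agents for seven days before readout.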
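For viability, T/C in this document: 100% = DMSO vehicle control wells.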

SMILES | IC50 (second compound 0.1 µM) [nM] | IC50 (second compound 0.316 µM) [nM] | IC50 (second compound 1 µM) [nM] | IC50 (second compound 3.16 µM) [nM] | IC50 (second compound 10 µM) [nM] | viability, T/C [1] [%] | viability, T/C [2] [%] | viability, T/C [3] [%] | viability, T/C [4] [%] | viability, T/C [7] [%] | viability, T/C [8] [%] | viability, T/C [9] [%] | viability, T/C [10] [%] | viability, T/C [13] [%] | viability, T/C [14] [%] | viability, T/C [15] [%] | viability, T/C [16] [%] | viability, T/C [19] [%] | viability, T/C [20] [%] | viability, T/C [21] [%] | also measured
CC(C)c1c(-c2ccccc2)nc2c(C#N)c[nH]n2c1=O + NC1CCC(NC2CC2c2ccccc2)CC1 | > 10000 | > 10000 | > 10000 | > 10000 | > 10000 | 108 | 112 | 93.7 | 105 | 108 | 110 | 113 | 104 | 104 | 113 | 108 | 100 | 96.4 | 92.5 | 113 | viability, T/C [5]: 104%; viability, T/C [6]: 88.1%; viability, T/C [11]: 101%; viability, T/C [12]: 98.8%; viability, T/C [17]: 104%; viability, T/C [18]: 93.8%; viability, T/C [22]: 108%; viability, T/C [23]: 102%; viability, T/C [24]: 87.3%; viability, T/C [25]: 101%; viability, T/C [26]: 84.1%; viability, T/C [27]: 108%; viability, T/C [28]: 93.6%; viability, T/C [29]: 86.4%; viability, T/C [30]: 78.7%
CC1COCCN1c1cc(-c2ccnn2C)c2ccnc(-c3ccn[nH]3)c2n1 (stereo not given) + NC1CCC(NC2CC2c2ccccc2)CC1 | 13.7 | 16.1 | 11.4 | 9.65 | 8.1 | 16.8 | 9.57 | 7.39 | 5.98 | 18.5 | 9.43 | 6.72 | 6.47 | 16.6 | 9.69 | 7.82 | 5.98 | 14.4 | 8.55 | 6.56 | viability, T/C [31]: 91.5%; viability, T/C [32]: 62.6%; viability, T/C [33]: 108%; viability, T/C [34]: 71.9%; viability, T/C [35]: 98.5%; viability, T/C [36]: 54.5%; viability, T/C [37]: 98.1%; viability, T/C [38]: 48.5%; viability, T/C [22]: 5.96%; viability, T/C [39]: 90.7%; viability, T/C [40]: 40.9%; viability, T/C [25]: 14.5%; viability, T/C [26]: 7.6%; viability, T/C [27]: 6.06%; viability, T/C [28]: 5.03%
COc1ccc([C@@H](O)c2cc(-c3ncnc4cc(N5CCOCC5)ccc34)c(F)cc2Cl)nn1 + NC1CCC(NC2CC2c2ccccc2)CC1 | 423 | 471 | 468 | 520 | 299 | 102 | 109 | 52.1 | 30.2 | 112 | 95.1 | 63.3 | 26.6 | 122 | 102 | 60.6 | 28.4 | 102 | 102 | 66.4 | viability, T/C [5]: 8.02%; viability, T/C [6]: 5.61%; viability, T/C [11]: 8.83%; viability, T/C [12]: 6.71%; viability, T/C [17]: 10.5%; viability, T/C [18]: 6.33%; viability, T/C [22]: 27%; viability, T/C [23]: 10.9%; viability, T/C [24]: 5.88%; viability, T/C [25]: 98.1%; viability, T/C [26]: 78.8%; viability, T/C [27]: 48.2%; viability, T/C [28]: 23.5%; viability, T/C [29]: 9.1%; viability, T/C [30]: 5.47%
O=C(C=Cn1cnc(-c2cc(C(F)(F)F)cc(C(F)(F)F)c2)n1)NNc1cnccn1 + NC1CCC(NC2CC2c2ccccc2)CC1 | < 3.16 | < 3.16 | < 3.16 | < 3.16 | < 3.16 | 7.06 | 4.2 | 3.1 | 2.53 | 6.85 | 4.29 | 3.65 | 2.34 | 6.23 | 4.78 | 2.92 | 2.31 | 7.11 | 4.9 | 3.12 | viability, T/C [31]: 19.9%; viability, T/C [32]: 8.25%; viability, T/C [33]: 16.7%; viability, T/C [34]: 8.83%; viability, T/C [35]: 22.8%; viability, T/C [36]: 8.34%; viability, T/C [37]: 21%; viability, T/C [38]: 8.38%; viability, T/C [22]: 2.6%; viability, T/C [39]: 17.9%; viability, T/C [40]: 9.32%; viability, T/C [25]: 6.65%; viability, T/C [26]: 4.32%; viability, T/C [27]: 3.64%; viability, T/C [28]: 2.6%
